These are literature values, as cited in patent US6238865A, “Simple and efficient method to label and modify 3'-termini of RNA using DNA polymerase and a synthetic template with defined overhang nucleotides” (Chen; Guangtian, priority 1998, dated 2001).

In this series the target is poly(A) polymerase (Saccharomyces cerevisiae, UniProt P29468). The settings on record: cited from Lingner et al., J. Biol. Chem. 266:8741-8746, 1991, read-out: Km for ATP.
Chain of poly(A) polymerase (P29468 whole entry): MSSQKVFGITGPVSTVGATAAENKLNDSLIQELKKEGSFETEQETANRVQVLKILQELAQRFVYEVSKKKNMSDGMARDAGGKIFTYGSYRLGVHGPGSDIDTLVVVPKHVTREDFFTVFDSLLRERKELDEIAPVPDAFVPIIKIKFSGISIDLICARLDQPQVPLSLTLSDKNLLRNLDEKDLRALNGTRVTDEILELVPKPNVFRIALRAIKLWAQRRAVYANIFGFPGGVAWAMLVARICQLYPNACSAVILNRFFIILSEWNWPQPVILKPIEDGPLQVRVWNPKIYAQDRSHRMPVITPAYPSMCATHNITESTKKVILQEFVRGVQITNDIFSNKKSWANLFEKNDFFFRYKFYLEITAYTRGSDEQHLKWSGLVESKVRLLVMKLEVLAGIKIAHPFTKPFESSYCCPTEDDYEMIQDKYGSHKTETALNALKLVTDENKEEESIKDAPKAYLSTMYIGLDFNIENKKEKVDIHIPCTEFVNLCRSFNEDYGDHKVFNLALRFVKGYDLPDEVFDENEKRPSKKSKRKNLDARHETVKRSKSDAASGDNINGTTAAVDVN

For the molecule `Nc1ncnc2c1ncn2[C@@H]1O[C@H](COP(=O)(O)OP(=O)(O)OP(=O)(O)O)[C@@H](O)[C@H]1O` [ATP], the Km was 50 µM.

By Km is commonly meant the substrate concentration at which the rate is half of its maximum.
